One assay concerns the target T1, IKBKB (IKKβ) (Homo sapiens, UniProt O14920).
T1 construct: purchased Invitrogen (Paisley, UK)
T1 sequence (O14920 1-756): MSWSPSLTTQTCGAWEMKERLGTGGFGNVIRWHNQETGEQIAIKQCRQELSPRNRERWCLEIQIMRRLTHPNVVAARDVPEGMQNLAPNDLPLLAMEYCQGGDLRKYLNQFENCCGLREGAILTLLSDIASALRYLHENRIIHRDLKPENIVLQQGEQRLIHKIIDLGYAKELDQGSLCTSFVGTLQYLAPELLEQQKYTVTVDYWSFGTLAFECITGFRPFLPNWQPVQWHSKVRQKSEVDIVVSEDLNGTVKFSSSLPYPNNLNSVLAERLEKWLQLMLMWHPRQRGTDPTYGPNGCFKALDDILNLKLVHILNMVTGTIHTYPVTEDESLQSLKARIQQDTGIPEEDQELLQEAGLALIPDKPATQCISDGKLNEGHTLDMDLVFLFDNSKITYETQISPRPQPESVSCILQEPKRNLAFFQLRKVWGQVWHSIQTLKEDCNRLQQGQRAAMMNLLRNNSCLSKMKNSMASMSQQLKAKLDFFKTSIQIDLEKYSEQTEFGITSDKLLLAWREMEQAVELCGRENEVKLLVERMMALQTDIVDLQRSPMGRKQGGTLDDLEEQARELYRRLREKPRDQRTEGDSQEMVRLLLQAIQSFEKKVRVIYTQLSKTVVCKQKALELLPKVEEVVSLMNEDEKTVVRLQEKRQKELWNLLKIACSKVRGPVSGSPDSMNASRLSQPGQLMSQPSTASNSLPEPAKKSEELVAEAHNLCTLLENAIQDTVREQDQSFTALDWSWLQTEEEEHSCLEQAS
The assay is described as follows: IKKβ Enzyme Assay (Z'-LYTE, Invitrogen). Type of assay: biochemical. The settings on record: ATP at or close to Km; read-out: Inhibitor activity versus IKKβ. The protocol:
The ability of compounds to inhibit IKKβ kinase activity was measured in an assay performed by Invitrogen (Paisley, UK). The Z′-LYTE™ biochemical assay employs a fluorescence-based, coupled-enzyme format and is based on the differential sensitivity of phosphorylated and non-phosphorylated peptides to proteolytic cleavage. The peptide substrate is labelled with two fluorophores—one at each end—that make up a FRET pair. In the primary reaction, the kinase transfers the gamma-phosphate of ATP to a single serine or threonine residue in a synthetic FRET-peptide. In the secondary reaction, a site-specific protease recognizes and cleaves non-phosphorylated FRET-peptides. Phosphorylation of FRET-peptides suppresses cleavage by the Development Reagent. Cleavage disrupts FRET between the donor (i.e., coumarin) and acceptor (i.e. fluorescein) fluorophores on the FRET-peptide, whereas uncleaved, phosphorylated FRET-peptides maintain FRET. A […] method, which calculates the ratio (the Emission Ratio) of donor emission to acceptor emission after excitation of the donor fluorophore at 400 nm, is used to quantitate reaction progress.
The final 10 μL Kinase Reaction consists of 0.9-8.0 ng IKBKB (IKKβ), 2 μM Ser/Thr 05 Peptide and ATP in 50 mM HEPES pH 7.5, 0.01% BRIJ-35, 10 mM MgCl2, 1 mM EGTA. The assay is performed at an ATP concentration at, or close to the Km. After the 60 minute Kinase Reaction incubation at room temperature, 5 μL of a 1:128 dilution of Development Reagent is added. The assay plate is incubated for a further 60 minutes at room temperature and read on a fluorescence plate reader.
Duplicate data points are generated from a ⅓ log dilution series of a stock solution of test compound in DMSO. Nine dilutions steps are made from a top concentration of 10 μM, and a ‘no compound’ blank is included. Data is collected and analysed using XLfit software from IDBS. The dose response curve is curve fitted to model number 205 (sigmoidal dose-response model). From the curve generated, the concentration giving 50% inhibition is determined and reported.

Another assay has as its system THP-1 cells. Description: LPS-Stimulation of THP-1 Cells, TNF-α release. Type of assay: cell-based. The settings on record: Homo sapiens, LPS 1 μg/ml, 6 hrs, read-out: Inhibitor activity versus THP-1 TNFα release. Here is the method: LPS-Stimulation of THP-1 Cells
THP-1 cells were plated in 100 μl at a density of 4×10^4 cells/well in V-bottomed 96 well tissue culture treated plates and incubated at 37° C. in 5% CO2 for 16 hrs. 2 hrs after the addition of the inhibitor in 100 μl of tissue culture media, the cells were stimulated with LPS (E. coli strain 005:85, Sigma) at a final concentration of 1 μg/ml and incubated at 37° C. in 5% CO2 for 6 hrs. TNF-α levels were measured from cell-free supernatants by sandwich ELISA (R&D Systems #QTA00B)

The subject of the next assay is human whole blood. Description: LPS-Stimulation of Human Whole Blood, TNF-α release. It is filed as cell-based. The settings on record: LPS 100 ng/ml, 6 hrs, read-out: Inhibitor activity versus human whole blood TNFα release. Here is the method: LPS-Stimulation of Human Whole Blood
Whole blood was taken by venous puncture using heparinised vacutainers (Becton Dickinson) and diluted in an equal volume of RPMI1640 tissue culture media (Sigma). 100 μl was plated in V-bottomed 96 well tissue culture treated plates. 2 hrs after the addition of the inhibitor in 100 μl of RPMI1640 media, the blood was stimulated with LPS (E. coli strain 005:B5, Sigma) at a final concentration of 100 ng/ml and incubated at 37° C. in 5% CO2 for 6 hrs. TNF-α levels were measured from cell-free supernatants by sandwich ELISA (R&D Systems #QTA00B)

Some results are limits rather than exact numbers.

On to `NC(=O)Nc1sc(-c2ccc(CN[C@H](C(=O)OC3CCCC3)c3ccccc3)cc2)cc1C(N)=O` [Example 1, Cyclopentyl (2S)-({-4-[4-carbamoyl-5-(carbamoylamino)-2-thienyl]benzyl}amino)(phenyl)acetate], for which the IC50 on IKBKB (IKKβ), with THP-1 cells and with human whole blood was 1 to 5 µM each time. Take `NC(=O)Nc1sc(-c2cccc(CN[C@@H](CO)C(=O)OC3CCCC3)c2)cc1C(N)=O` [Example 12, Cyclopentyl N-{3-[4-carbamoyl-5-(carbamoylamino)thiophen-2-yl]benzyl}-L-serinate]: the IC50 on IKBKB (IKKβ) and with human whole blood was less than 1 µM throughout.

For `CC(C)[C@H](NCc1cccc(-c2cc(C(N)=O)c(NC(N)=O)s2)c1)C(=O)OC1CCCC1` [Example 15, Cyclopentyl N-{3-[4-carbamoyl-5-(carbamoylamino)thiophen-2-yl]benzyl}-L-valinate], in the assay on human whole blood, the IC50 was 1 to 5 µM. Still for that read-out and setting: the figure for `CC(C)(C)OC[C@H](NCCc1cccc(-c2cc(C(N)=O)c(NC(N)=O)s2)c1)C(=O)OC1CCCC1` [Example 20, Cyclopentyl O-tert-butyl-N-(2-{3-[4-carbamoyl-5-(carbamoylamino)-2-thienyl]phenyl}ethyl)-L-serinate] is 1 to 5 µM. The same measure, in the same setting: the figure for `C[C@@H](OC(C)(C)C)[C@H](NCCc1cccc(-c2cc(C(N)=O)c(NC(N)=O)s2)c1)C(=O)OC1CCCC1` [Example 21, Cyclopentyl O-tert-butyl-N-(2-{3-[4-carbamoyl-5-(carbamoylamino)-2-thienyl]phenyl}ethyl)-L-threoninate] is greater than 5 µM.

With `Cc1ccc(-c2cc(C(N)=O)c(NC(N)=O)s2)cc1CCN[C@@H](CC(C)C)C(=O)OC1CCCC1` [Example 23, Cyclopentyl N-(2-{5-[4-carbamoyl-5-(carbamoylamino)thiophen-2-yl]-2-methylphenyl}ethyl)-L-leucinate], the IC50 with human whole blood is greater than 5 µM.

As for `CC(C)C[C@H](NCCc1cc(-c2cc(C(N)=O)c(NC(N)=O)s2)ccc1Cl)C(=O)OC1CCCC1` [Example 24, Cyclopentyl N-(2-{5-[4-carbamoyl-5-(carbamoylamino)thiophen-2-yl]-2-chlorophenyl}ethyl)-L-leucinate], the IC50 in the assay on human whole blood is greater than 5 µM.

For `CC(C)C[C@H](NC/C=C/c1ccc(-c2cc(C(N)=O)c(NC(N)=O)s2)c(Cl)c1)C(=O)OC1CCCC1` [Example 35, Cyclopentyl N-[(2E)-3-{4-[4-carbamoyl-5-(carbamoylamino)thiophen-2-yl]-3-chlorophenyl}prop-2-en-1-yl]-L-leucinate], the IC50 on IKBKB (IKKβ) and with THP-1 cells was 1 to 5 µM each time. Consider `CC(C)C[C@H](NC/C=C/c1ccc(-c2cc(C(N)=O)c(NC(N)=O)s2)cc1C(F)(F)F)C(=O)OC1CCCC1` [Example 36, Cyclopentyl N-[(2E)-3-{4-[4-carbamoyl-5-(carbamoylamino)thiophen-2-yl]-2-(trifluoromethyl)phenyl}prop-2-en-1-yl]-L-leucinate], for which the IC50 on IKBKB (IKKβ) was 1 to 5 µM; with THP-1 cells, greater than 5 µM.

Consider `CC(C)C[C@H](NC/C=C/c1cc(F)c(-c2cc(C(N)=O)c(NC(N)=O)s2)cc1F)C(=O)OC1CCCC1` [Example 37, Cyclopentyl N-[(2E)-3-{4-[4-carbamoyl-5-(carbamoylamino)thiophen-2-yl]-2,5-difluorophenyl}prop-2-en-1-yl]-L-leucinate], for which the IC50 at IKBKB (IKKβ) and in the assay on THP-1 cells was 1 to 5 µM in each case. For the molecule `CC(C)C[C@H](NC/C=C/c1c(F)cc(-c2cc(C(N)=O)c(NC(N)=O)s2)cc1F)C(=O)OC1CCCC1` [Example 38, Cyclopentyl N-[(2E)-3-{4-[4-carbamoyl-5-(carbamoylamino)thiophen-2-yl]-2,6-difluorophenyl}prop-2-en-1-yl]-L-leucinate], the values for the IC50 at IKBKB (IKKβ) and in the assay on human whole blood were greater than 5 µM and 1 to 5 µM, respectively. For `CC(C)C[C@H](NC/C=C/c1ccc(-c2cc(C(N)=O)c(NC(N)=O)s2)c(C(F)(F)F)c1)C(=O)OC1CCCC1` [Example 39, Cyclopentyl N-[(2E)-3-{4-[4-carbamoyl-5-(carbamoylamino)thiophen-2-yl]-3-(trifluoromethyl)phenyl}prop-2-en-1-yl]-L-leucinate], in that order: greater than 5 µM and 1 to 5 µM.

As for `CC(C)(C)OC[C@H](NC/C=C/c1ccc(-c2cc(C(N)=O)c(NC(N)=O)s2)cc1)C(=O)OC1CCCC1` [Example 43, Cyclopentyl O-tert-butyl-N-[(2E)-3-{4-[4-carbamoyl-5-(carbamoylamino)thiophen-2-yl]phenyl}prop-2-en-1-yl]-L-serinate], the IC50 at IKBKB (IKKβ) is less than 1 µM; with human whole blood, 1 to 5 µM. For `NC(=O)Nc1sc(-c2ccc(/C=C/CN[C@H](C(=O)OC3CCCC3)C3CCCCC3)cc2)cc1C(N)=O` [Example 44, Cyclopentyl (2S)-{[(2E)-3-{4-[4-carbamoyl-5-(carbamoylamino)thiophen-2-yl]phenyl}prop-2-en-1-yl]amino}(cyclohexyl)ethanoate], in that order: less than 1 µM and greater than 5 µM. `CC(C)(C)OC(=O)[C@@H](NC/C=C/c1ccc(-c2cc(C(N)=O)c(NC(N)=O)s2)cc1)C1CCCCC1` [Example 45, tert-butyl (2S)-{[(2E)-3-{4-[4-carbamoyl-5-(carbamoylamino)thiophen-2-yl]phenyl}prop-2-en-1-yl]amino}(cyclohexyl)ethanoate]: the values for the IC50 on IKBKB (IKKβ) and in the assay on human whole blood were less than 1 µM and greater than 5 µM, respectively. For `CC(C)C[C@@H](NC/C=C/c1ccc(-c2cc(C(N)=O)c(NC(N)=O)s2)cc1)C(=O)OC1CCCC1` [Example 46, Cyclopentyl N-[(2E)-3-{4-[4-carbamoyl-5-(carbamoylamino)-2-thienyl]phenyl}prop-2-en-1-yl]-D-leucinate], in that order: less than 1 µM and 1 to 5 µM. For the molecule `C[C@@H](OC(C)(C)C)[C@H](NC/C=C/c1ccc(-c2cc(C(N)=O)c(NC(N)=O)s2)cc1)C(=O)OC1CCCC1` [Example 47, Cyclopentyl O-tert-butyl-N-[(2E)-3-{4-[4-carbamoyl-5-(carbamoylamino)thiophen-2-yl]phenyl}prop-2-en-1-yl]-L-threoninate], the IC50 in the assay with human whole blood is greater than 5 µM. On the same count and under the same terms, the figure for `C[C@@H](O)[C@H](NC/C=C/c1ccc(-c2cc(C(N)=O)c(NC(N)=O)s2)cc1)C(=O)OC1CCCC1` [Example 48, Cyclopentyl N-[(2E)-3-{4-[4-carbamoyl-5-(carbamoylamino)thiophen-2-yl]phenyl}prop-2-en-1-yl]-L-threoninate] is 1 to 5 µM.

Source of the values: patent US8003695B2 (Chroma Therapeutics Ltd., priority 2006, dated 2011).
